{
  "source": "patent US9707184B2",
  "about": "“Immediate release abuse deterrent liquid fill dosage form” (priority 2014, dated 2017)",
  "data": [
    {"test": "Solubility of the formulation components in water and alcohol", "type": "physicochemical", "details": "200 proof ethanol, filtered through a 0.45 micrometer PTFE filter", "excerpt": "Dyes can also be used and chosen to be soluble in both water and alcohol to produce a dark colored solution upon extraction and filtering as a visual deterrent to abuse. The formulation can include the following components listed in the Table 8 below, including a number of different dyes.", "values": [
      {"smiles": "CCN(Cc1cccc(S(=O)(=O)[O-])c1)c1ccc(C(=C2C=CC(=[N+](CC)Cc3cccc(S(=O)(=O)[O-])c3)C=C2)c2ccccc2S(=O)(=O)[O-])cc1.[Na+].[Na+]", "note": "[FD&C Blue #1]", "Alcohol Solubility (Tested)": "Yes"},
      {"smiles": "COc1cc(S(=O)(=O)[O-])c(C)cc1N=Nc1c(O)ccc2cc(S(=O)(=O)[O-])ccc12.[Na+].[Na+]", "note": "[FD&C Red #40]", "Alcohol Solubility (Tested)": "Yes"},
      {"smiles": "COc1ccc2c3c1O[C@H]1C(=O)CC[C@@]4(O)[C@@H](C2)N(C)CC[C@]314.Cl", "note": "[Oxycodone HCl, reference compound]", "Alcohol Solubility (Tested)": "Yes"}
    ]}
  ]
}
